Values after ≈ are worked out from the molar mass of the structure shown. Active and inactive are the calls of the source. The rule behind the calls is not given here.
Key:
[1] = target: Sphingosine 1-phosphate receptor 1 (Homo sapiens, UniProt P21453); test: Agonist activity against S1P1 receptor by cell based FRET assay; assay type: functional
[2] = target: Sphingosine 1-phosphate receptor 3 (Homo sapiens, UniProt Q99500); test: Agonist activity against S1P3 receptor by cell based FRET assay; assay type: functional
[3] = Permeability of the compound; assay type: ADME; details: not told; read-out: permeability
[4] = Solubility of the compound; assay type: physicochemical
Cytochrome P450 2C9 = Cytochrome P450 2C9 (Homo sapiens, UniProt P11712); test: Inhibition of CYP2C9; assay type: ADME
[5] = Percentage unbound in rat plasma; assay type: ADME, cell-free
[6] = Ratio of drug level in brain to blood in C57BL/6 mouse at 2 mg/kg, ip after 1 hr; assay type: ADME, organism-based; set-up: dose 2 mg/kg, route intraperitoneal
[7] = Ratio of drug level in brain to blood in C57BL/6 mouse at 2 mg/kg, ip after 4 hrs; assay type: ADME, organism-based; set-up: dose 2 mg/kg, route intraperitoneal
[8] = Percentage unbound in human plasma; assay type: ADME, cell-free
Homo sapiens = species on record: Homo sapiens; test: Selectivity ratio of EC50 for S1P3 receptor to EC50 for S1P1 receptor
[9] = Half life in mouse; assay type: ADME, organism-based; details: in vivo
[10] = Oral bioavailability in mouse; assay type: ADME, organism-based; details: in vivo
[11] = AUC (0 to 24 hrs) in mouse; assay type: ADME, organism-based; set-up: time < 24 hr; details: plasma
Mus musculus [12] = test: Decrease in lymphocyte count in mouse acute lymphopenia model at 1 mg/kg, po after 4 hrs by flow cytometry relative to base line; assay type: functional; set-up: scale not given: the % may be the effect or the level left
Mus musculus [13] = test: Decrease in lymphocyte count in mouse acute lymphopenia model at 1 mg/kg, po after 24 hrs by flow cytometry relative to base line; assay type: functional; set-up: scale not given: the % may be the effect or the level left
Mus musculus [14] = test: Antiinflammatory activity in C57BL/6 mouse EAE model assessed as decrease in clinical symptoms at 1 mg/kg, po administered qd after 10 days post immunization; assay type: functional, organism-based; set-up: dose 1 mg/kg
Cytochrome P450 2D6 = Cytochrome P450 2D6 (Homo sapiens, UniProt P10635); test: Inhibition of CYP2D6; assay type: ADME
Cytochrome P450 2D6, sequence (P10635 whole entry): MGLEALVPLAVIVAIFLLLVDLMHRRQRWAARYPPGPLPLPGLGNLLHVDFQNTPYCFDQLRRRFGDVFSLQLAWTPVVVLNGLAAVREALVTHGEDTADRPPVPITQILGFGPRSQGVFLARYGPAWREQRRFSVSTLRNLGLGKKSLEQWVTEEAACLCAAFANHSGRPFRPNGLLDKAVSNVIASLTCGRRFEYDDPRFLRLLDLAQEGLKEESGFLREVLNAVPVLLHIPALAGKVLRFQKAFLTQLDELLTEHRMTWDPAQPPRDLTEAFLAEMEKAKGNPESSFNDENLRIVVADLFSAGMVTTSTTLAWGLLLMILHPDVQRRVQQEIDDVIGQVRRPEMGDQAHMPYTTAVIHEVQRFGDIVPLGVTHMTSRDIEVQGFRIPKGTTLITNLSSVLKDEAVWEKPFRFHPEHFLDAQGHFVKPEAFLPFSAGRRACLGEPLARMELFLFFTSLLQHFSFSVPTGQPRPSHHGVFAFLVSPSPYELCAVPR

Cytochrome P450 2C9, sequence (P11712 whole entry): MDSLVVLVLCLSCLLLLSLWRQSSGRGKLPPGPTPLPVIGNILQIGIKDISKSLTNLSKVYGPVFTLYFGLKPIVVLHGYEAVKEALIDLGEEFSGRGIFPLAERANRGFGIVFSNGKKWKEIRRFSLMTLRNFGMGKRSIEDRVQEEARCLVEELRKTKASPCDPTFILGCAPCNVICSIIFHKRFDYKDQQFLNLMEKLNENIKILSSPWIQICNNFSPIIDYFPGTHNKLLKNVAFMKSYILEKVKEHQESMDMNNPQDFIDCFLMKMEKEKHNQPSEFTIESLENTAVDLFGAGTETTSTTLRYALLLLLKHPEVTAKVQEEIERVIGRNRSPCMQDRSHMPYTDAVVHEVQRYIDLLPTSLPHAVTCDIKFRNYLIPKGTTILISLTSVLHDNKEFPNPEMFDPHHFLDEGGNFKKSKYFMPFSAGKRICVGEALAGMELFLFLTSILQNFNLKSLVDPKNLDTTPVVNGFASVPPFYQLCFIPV
Sphingosine 1-phosphate receptor 1, sequence (P21453 whole entry): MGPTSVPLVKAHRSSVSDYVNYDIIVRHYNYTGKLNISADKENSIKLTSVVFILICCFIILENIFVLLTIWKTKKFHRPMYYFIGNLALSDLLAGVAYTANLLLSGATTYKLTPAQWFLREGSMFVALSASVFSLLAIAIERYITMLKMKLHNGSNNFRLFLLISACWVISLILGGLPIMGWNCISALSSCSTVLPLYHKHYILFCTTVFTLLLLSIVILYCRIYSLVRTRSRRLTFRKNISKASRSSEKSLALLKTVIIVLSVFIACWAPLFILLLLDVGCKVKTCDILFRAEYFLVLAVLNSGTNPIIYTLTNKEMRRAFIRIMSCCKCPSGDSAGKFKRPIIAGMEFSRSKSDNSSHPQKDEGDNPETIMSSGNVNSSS
Sphingosine 1-phosphate receptor 3, sequence (Q99500 whole entry): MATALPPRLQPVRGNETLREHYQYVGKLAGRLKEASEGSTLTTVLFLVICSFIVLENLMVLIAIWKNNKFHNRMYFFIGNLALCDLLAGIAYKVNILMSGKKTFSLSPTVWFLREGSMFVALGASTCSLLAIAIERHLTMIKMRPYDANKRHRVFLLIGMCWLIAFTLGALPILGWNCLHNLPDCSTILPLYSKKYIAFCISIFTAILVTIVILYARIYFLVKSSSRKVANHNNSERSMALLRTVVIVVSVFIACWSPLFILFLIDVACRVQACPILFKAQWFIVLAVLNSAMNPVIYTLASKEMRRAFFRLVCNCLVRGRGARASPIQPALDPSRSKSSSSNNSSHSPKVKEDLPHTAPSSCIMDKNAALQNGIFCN

| SMILES | EC50 [1] [nM] | EC50 [2] [µM] | fraction unbound [8] | other results |
| --- | --- | --- | --- | --- |
| CCc1c(CCCC(=O)O)cccc1-c1ccc(-c2ccc(OC(C)C)c(C#N)c2)s1 | 3.98 | > 10 | – | Papp [3]: 30 ×10⁻⁶ cm/s; solubility [4]: 115 µg/mL (≈ 265 µM); IC50 (Cytochrome P450 2C9): 1.58 µM; fraction unbound [5]: 0.0002; Kp at 1 h [6]: 1; Kp at 4 h [7]: 1.5 |
| CCc1c(CN(C)C(C)(C)C(=O)O)cccc1-c1nsc(-c2ccc(OC(C)C)c(C(F)(F)F)c2)n1 | 100 | > 10 | 4e-05 | Ratio EC50 (Homo sapiens): > 1000 |
| CCc1c(CCN2CCC(C(=O)O)CC2)cccc1-c1nsc(-c2ccc(OC(C)C)c(C(F)(F)F)c2)n1 | 0.1 | 2.51 | 0.0017 | Ratio EC50 (Homo sapiens): > 1000 |
| CCc1c(CCCC(=O)O)cccc1-c1ncc(-c2ccc(OC(C)C)c(C#N)c2)cn1 | 25.1 | – | – | – |
| CCc1c(CCCC(=O)O)cccc1-c1nsc(-c2ccc(-c3ccccc3)c(C(F)(F)F)c2)n1 | 5.01 | – | – | – |
| CCc1c(CCN2CC(C(=O)O)C2)cccc1-c1nsc(-c2ccc(OC(C)C)c(Cl)c2)n1 | 0.251 | > 3.16 | 0.0067 | Ratio EC50 (Homo sapiens): > 1000 |
| CCc1c(CCCC(=O)O)cccc1-c1nsc(-c2cnc(OC(C)C)c(C(F)(F)F)c2)n1 | 5.01 | – | 0.00031 | – |
| CCc1c(CCCC(=O)O)cccc1-c1ccn(-c2ccc(OC(C)C)c(C#N)c2)n1 | 2510 | – | – | – |
| CCc1c(CCCC(=O)O)cccc1-c1nsc(-c2ccc(OC(C)C)c(Cl)c2)n1 | 3.98 | – | 0.0015 | – |
| CCc1c(CCCC(=O)O)cccc1-c1nsc(-c2ccc(N3CCCCC3)c(C(F)(F)F)c2)n1 | 2 | – | 1e-05 | – |
| CCc1c(CCN2CCCCC2)cccc1-c1nsc(-c2ccc(CC(C)C)c(C#N)c2)n1 | 1580 | > 10 | 0.00017 | – |
| CCc1c(CCCC(=O)O)cccc1-c1cnc(-c2ccc(OC(C)C)c(C#N)c2)[nH]1 | > 10000 | – | – | – |
| CCc1c(CCCC(=O)O)cccc1-c1ccc(-c2ccc(OC(C)C)c(C#N)c2)cn1 | 31.6 | – | – | – |
| CCc1c(CCCC(=O)O)cccc1-c1nnc(-c2ccc(OC(C)C)c(C#N)c2)o1 | 3.16 | > 10 | – | Papp [3]: 24 ×10⁻⁶ cm/s; solubility [4]: 187 µg/mL (≈ 446 µM); IC50 (Cytochrome P450 2C9): 7.94 µM; fraction unbound [5]: 0.0021; Kp at 1 h [6]: 0.11; Kp at 4 h [7]: 0.09 |
| CCc1c(CCCC(=O)O)cccc1-c1ccc(-c2ccc(OC(C)C)c(C#N)c2)nn1 | 631 | – | – | – |
| CCc1c(CCCC(=O)O)cccc1-c1ccc(-c2ccc(OC(C)C)c(C#N)c2)cc1 | 1.58 | > 10 | – | Papp [3]: 31 ×10⁻⁶ cm/s; solubility [4]: 154 µg/mL (≈ 360 µM); IC50 (Cytochrome P450 2C9): 3.98 µM; fraction unbound [5]: 0.0001; Kp at 1 h [6]: 0.93; Kp at 4 h [7]: 0.95 |
| CCc1c(CCCC(=O)O)cccc1-c1nsc(-c2ccc(N3CCN(C)CC3)c(C(F)(F)F)c2)n1 | > 3160 | – | – | fraction unbound [5]: 0.0032 |
| CCc1c(CCCC(=O)O)cccc1-c1cnc(-c2ccc(OC(C)C)c(C#N)c2)s1 | 3.16 | > 10 | 0.001 | Papp [3]: 22 ×10⁻⁶ cm/s; solubility [4]: 125 µg/mL (≈ 288 µM); IC50 (Cytochrome P450 2C9): 3.98 µM; Kp at 1 h [6]: 0.38; Kp at 4 h [7]: 0.35; half-life [9]: 216 min; bioavailability [10]: 100%; AUC(0-t) at 24 h [11]: 8340 ng·h/mL; Activity (Mus musculus [12]): 15.3%; Activity (Mus musculus [13]): 62.6%; Activity (Mus musculus [14]): inactive |
| CCc1c(CN(C)CC(=O)O)cccc1-c1nsc(-c2ccc(OC(C)C)c(C(F)(F)F)c2)n1 | 10 | > 10 | 0.0049 | Ratio EC50 (Homo sapiens): > 1000 |
| CCc1c(CCCC(=O)O)cccc1-c1ccnc(-c2ccc(OC(C)C)c(C#N)c2)n1 | > 3160 | – | – | – |
| CCc1c(CCCC(=O)O)cncc1-c1nsc(-c2ccc(OC(C)C)c(Cl)c2)n1 | 251 | – | 0.0019 | – |
| CCc1c(-c2nsc(-c3ccc(CC(C)C)c(C#N)c3)n2)ccnc1CCCC(=O)O | 158 | – | 0.0019 | – |
| CCc1c(CCN2CC(C(=O)O)C2)cccc1-c1nsc(-c2ccc(OC(C)C)c(C(F)(F)F)c2)n1 | 0.251 | 3.16 | 0.0025 | Ratio EC50 (Homo sapiens): > 1000 |
| CCc1c(CCCC(=O)O)cccc1-c1nsc(-c2ccc(CC(C)C)c(C#N)c2)n1 | 1.26 | – | 0.0003 | – |

| SMILES | EC50 [1] [nM] | EC50 [2] [µM] | fraction unbound [8] | other results |
| --- | --- | --- | --- | --- |
| CCc1c(CCCC(=O)O)cccc1-c1cc(-c2ccc(OC(C)C)c(C#N)c2)no1 | 5.01 | – | – | – |
| CCc1c(CN2CC(C(=O)O)C2)cccc1-c1nsc(-c2ccc(OC(C)C)c(C(F)(F)F)c2)n1 | 0.251 | 2.51 | 0.0026 | Ratio EC50 (Homo sapiens): > 1000 |
| CCc1c(CCCC(=O)O)cccc1-c1ccc(-c2ccc(OC(C)C)c(C#N)c2)nc1 | 31.6 | – | – | – |
| CCc1c(CCCC(=O)O)cccc1-c1cccc(-c2ccc(OC(C)C)c(C#N)c2)n1 | > 3160 | – | – | – |
| CCc1c(CCCC(=O)O)cccc1-c1nc(-c2ccc(OC(C)C)c(C#N)c2)ns1 | 1.26 | – | – | – |
| CCc1c(CN2CC(C(=O)O)C2)cccc1-c1nsc(-c2ccc(CC(C)C)c(C#N)c2)n1 | 7.94 | > 3.16 | 0.0128 | Ratio EC50 (Homo sapiens): > 1000 |
| CCc1c(CCNCC(=O)O)cccc1-c1nsc(-c2ccc(OC(C)C)c(C(F)(F)F)c2)n1 | 0.0158 | > 3.16 | 0.0013 | Ratio EC50 (Homo sapiens): > 1000 |
| CCc1c(CCN2CC(C(=O)O)C2)cccc1-c1nsc(-c2ccc(CC(C)C)c(C#N)c2)n1 | 0.794 | 2.51 | 0.0071 | Ratio EC50 (Homo sapiens): > 1000 |
| CCc1c(CCCC(=O)O)cncc1-c1nsc(-c2ccc(CC(C)C)c(C#N)c2)n1 | 398 | – | 0.0014 | – |
| CCc1c(CCCC(=O)O)cncc1-c1nsc(-c2ccc(OC(C)C)c(C(F)(F)F)c2)n1 | 25.1 | – | 0.0012 | – |
| CCCCCCCCc1ccc(CCC(N)(CO)CO)cc1 | – | – | – | Activity (Mus musculus [14]): Active |
| CCc1c(CCCC(=O)O)cccc1-c1nsc(-c2ccc(N3CCOCC3)c(C(F)(F)F)c2)n1 | 126 | – | – | fraction unbound [5]: 0.0006 |
| CCc1c(CCCC(=O)O)cccc1-c1nsc(-c2ccc(OC(C)C)c(C(F)(F)F)c2)n1 | 2 | – | 0.00014 | – |
| CCc1c(CCN(C)CC(=O)O)cccc1-c1nsc(-c2ccc(OC(C)C)c(C(F)(F)F)c2)n1 | 0.02 | > 3.16 | 0.0021 | Ratio EC50 (Homo sapiens): > 1000 |
| CCc1c(CCCC(=O)O)cccc1-c1nccc(-c2ccc(OC(C)C)c(C#N)c2)n1 | > 3160 | – | – | – |
| CCc1c(CCCC(=O)O)cccc1-c1nsc(-c2ccc(OC(C)C)c(C#N)c2)n1 | 2.51 | > 10 | 0.0021 | Papp [3]: 32 ×10⁻⁶ cm/s; solubility [4]: 160 µg/mL (≈ 367 µM); IC50 (Cytochrome P450 2C9): 5.01 µM; Kp at 1 h [6]: 0.36; Kp at 4 h [7]: 0.52; half-life [9]: 90 min; bioavailability [10]: 87%; AUC(0-t) at 24 h [11]: 2600 ng·h/mL; Activity (Mus musculus [12]): 22.7%; Activity (Mus musculus [13]): 87.9%; Activity (Mus musculus [14]): Active |
| CCc1c(CCCC(=O)O)cccc1-c1cc(-c2ccc(OC(C)C)c(C#N)c2)n[nH]1 | > 10000 | – | – | – |
| CCc1c(CCCC(=O)O)cccc1-c1cc(-c2ccc(OC(C)C)c(C#N)c2)ncn1 | > 3160 | – | – | – |
| CCc1c(CCCC(=O)O)cccc1-c1cnc(-c2ccc(OC(C)C)c(C#N)c2)nc1 | 1 | > 10 | 0.0019 | Papp [3]: 19 ×10⁻⁶ cm/s; solubility [4]: 161 µg/mL (≈ 375 µM); IC50 (Cytochrome P450 2D6): 6.31 µM; Kp at 1 h [6]: 0.47; Kp at 4 h [7]: 0.48; half-life [9]: 480 min; bioavailability [10]: 78%; AUC(0-t) at 24 h [11]: 11500 ng·h/mL; Activity (Mus musculus [12]): 34.9%; Activity (Mus musculus [13]): 103.2%; Activity (Mus musculus [14]): Active |
| CCc1c(CN2CCC(C(=O)O)CC2)cccc1-c1nsc(-c2ccc(OC(C)C)c(C(F)(F)F)c2)n1 | 15.8 | > 10 | – | fraction unbound [5]: 0.0038; Ratio EC50 (Homo sapiens): > 1000 |
| CCc1c(CCCC(=O)O)cccc1-c1cnn(-c2ccc(OC(C)C)c(C#N)c2)c1 | 631 | – | – | – |
| CCc1c(CN2CC(C(=O)O)C2)cccc1-c1nsc(-c2ccc(OC(C)C)c(Cl)c2)n1 | 3.98 | > 3.16 | 0.0096 | Ratio EC50 (Homo sapiens): > 1000 |
| CCc1c(CCN2CC(O)C2)cccc1-c1nsc(-c2ccc(CC(C)C)c(C#N)c2)n1 | 200 | > 3.16 | 0.00091 | – |

Reference: ChEMBL document CHEMBL2057096, “Discovery of novel 1,2,4-thiadiazole derivatives as potent, orally active agonists of sphingosine 1-phosphate receptor subtype 1 (S1P(1))” (J Med Chem, 2012)
